Reference: ChEMBL document CHEMBL5579902, “Medullins A-H, Sesquiterpenes from Perenniporia medulla-panis, and Their Cellular Signaling Mechanism in HDF Cells” (J Nat Prod, 2024)
Activity calls are given as the source filed them. The calls are words filed in the database; no cut-off is given here.

How the values were obtained:
[1] = target: Mitogen-activated protein kinase; ERK1/ERK2 (Homo sapiens) (UniProt P27361+P28482); test: Induction of ERK1/2 phosphorylation in HDF cells at 10 uM incubated at 0.5 to 24 hrs by Western blot analysis; format: cell-based; conditions: filed as activator, time 0.5-24 hrs
HDF [2] = test: Induction of JNK phosphorylation in HDF cells at 10 uM incubated at 0.5 to 24 hrs by Western blot analysis; format: cell-based; conditions: Homo sapiens, filed as activator, time 0.5-24 hrs
HDF [3] = test: Induction of p38 phosphorylation in HDF cells at 10 uM incubated at 0.5 to 24 hrs by Western blot analysis; format: cell-based; conditions: Homo sapiens, time 0.5-24 hrs
NHDF = test: Cytotoxicity against HDF cells assessed as reduction in cell viability at 10 uM incubated for 24 to 48 hrs by MTT assay; format: toxicity, cell-based; conditions: human, time 24-48 hrs

Mitogen-activated protein kinase; ERK1/ERK2 (Homo sapiens), sequence (P27361 whole entry, looked up): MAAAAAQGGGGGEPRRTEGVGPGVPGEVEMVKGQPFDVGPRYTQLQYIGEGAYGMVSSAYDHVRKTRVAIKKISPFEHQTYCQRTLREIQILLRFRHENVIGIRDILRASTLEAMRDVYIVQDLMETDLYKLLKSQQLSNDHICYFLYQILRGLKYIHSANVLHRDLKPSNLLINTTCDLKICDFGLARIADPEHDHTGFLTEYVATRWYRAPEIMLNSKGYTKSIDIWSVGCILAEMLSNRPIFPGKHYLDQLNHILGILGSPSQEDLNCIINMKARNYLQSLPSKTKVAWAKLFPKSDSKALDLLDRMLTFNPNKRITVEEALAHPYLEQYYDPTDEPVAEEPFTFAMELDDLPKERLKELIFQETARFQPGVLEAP
Mitogen-activated protein kinase; ERK1/ERK2 (Homo sapiens), sequence (P28482 whole entry, looked up): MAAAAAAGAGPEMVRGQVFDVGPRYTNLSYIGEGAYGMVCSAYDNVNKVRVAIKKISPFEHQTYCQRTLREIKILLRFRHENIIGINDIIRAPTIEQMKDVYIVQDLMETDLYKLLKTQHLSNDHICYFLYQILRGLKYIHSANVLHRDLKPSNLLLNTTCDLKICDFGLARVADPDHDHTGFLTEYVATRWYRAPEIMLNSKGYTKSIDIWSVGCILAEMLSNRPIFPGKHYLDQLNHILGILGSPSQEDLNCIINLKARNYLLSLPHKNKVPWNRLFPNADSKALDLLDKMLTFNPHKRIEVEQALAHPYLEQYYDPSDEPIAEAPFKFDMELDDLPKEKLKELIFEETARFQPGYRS

`CC(=O)O[C@@H]1[C@H](O)C2=C(C(=O)N([C@@H](Cc3ccccc3)C(=O)O)C2)[C@@]2(C)CCCC(C)(C)[C@H]12` was tested, and the Activity [1] was “Active”, the Activity (HDF [2]) was “Active” and the Activity (HDF [3]) was “inactive”. The Activity (NHDF) was “Non-Toxic”.

With `CC(=O)O[C@@H]1[C@H](O)C2=C(C(=O)N([C@H](C(=O)O)[C@@H](C)O)C2)[C@@]2(C)CCCC(C)(C)[C@H]12` the Activity [1] was “Active”, the Activity (HDF [2]) was “Active” and the Activity (HDF [3]) was “inactive”. For the same molecule, the Activity (NHDF) was “Non-Toxic”.

In the case of `CC(=O)O[C@@H]1[C@H](O)C2=C(C(=O)N([C@@H](CC(C)C)C(=O)O)C2)[C@@]2(C)CCCC(C)(C)[C@H]12`, the Activity [1] is reported as “Active”, the Activity (HDF [2]) is reported as “Active” and the Activity (HDF [3]) is reported as “inactive”. For the same molecule, the Activity (NHDF) was “Non-Toxic”.

For `CC(=O)O[C@@H]1[C@H](O)C2=C(C(=O)N([C@H](C(=O)O)C(C)C)C2)[C@@]2(C)CCCC(C)(C)[C@H]12`, the Activity [1] was “Active”, the Activity (HDF [2]) was “Active” and the Activity (HDF [3]) was “inactive”. For the same molecule, the Activity (NHDF) was “Non-Toxic”.

For `CC[C@H](C)[C@@H](C(=O)O)N1CC2=C(C1=O)[C@@]1(C)CCCC(C)(C)[C@@H]1[C@H](OC(C)=O)[C@@H]2O`, the Activity [1] was “Active”, the Activity (HDF [2]) was “Active” and the Activity (HDF [3]) was “inactive”. The Activity (NHDF) was “Non-Toxic”.

In the case of `CC(=O)O[C@@H]1[C@H](O)C2=C(C(=O)N([C@@H](C)C(=O)O)C2)[C@@]2(C)CCCC(C)(C)[C@H]12`, the Activity [1] is reported as “Active”, the Activity (HDF [2]) is reported as “Active” and the Activity (HDF [3]) is reported as “inactive”. The Activity (NHDF) was “Non-Toxic”.

In the case of `CC(=O)O[C@@H]1[C@H](O)C2=C(C(=O)N(CC(=O)O)C2)[C@@]2(C)CCCC(C)(C)[C@H]12`, the Activity [1] is reported as “Active”, the Activity (HDF [2]) is reported as “Active” and the Activity (HDF [3]) is reported as “inactive”. The Activity (NHDF) was “Non-Toxic”.
